From patent US12358902B2, “5-(2,5-bis(4-chloro-2-isopropylphenyl)thiophen-3-yl)-1H-tetrazole for the topical treatment of bacterial infections” (DENOVAMED INC., priority 2017, dated 2025)
Values after ≈ are worked out from the molar mass of the structure shown.

Columns and labels:
[1] = test system: mupirocin resistant strains of E. faecalis; assay: activity against mupirocin resistant strains; type: cell-based
[2] = test system: mupirocin resistant S. aureus strains (MMX 1013, MMX 7779, MMX 7782, MMX 8845, MMX 9202); assay: MIC versus mupirocin resistant S. aureus panel; type: cell-based; conditions: Staphylococcus aureus; mupirocin resistant S. aureus MMX 1013, MMX 7779, MMX 7782, MMX 8845, MMX 9202
Procedure: (§1) Using a broth microdilution assay according to Clinical Laboratory Standards Institute (CSLI) guidelines, we tested 5-(2,5-bis(4-chloro-2-isopropylphenyl)thiophen-3-yl)-1H-tetrazole (“Test Article” in below table) to establish MICs against a broad range of MDR bacteria and noted substantive activity versus methicillin-resistant Staphylococcus aureus (MRSA), vancomycin-resistant Enterococcus (VRE) and Streptococcus spp. Antimicrobial susceptibility testing was performed by a microdilution broth assay according to CLSI guidelines. The inoculum was prepared from stationary-phase cultures diluted in water. Microtiter plate wells received aliquots of 100 μL of the compound diluted in Mueller-Hinton II cation adjusted media. The final concentration of compound typically ranged from 250 to 0.125 μg/ml in serial two-fold dilutions. In addition to the test compound, growth and sterility controls were included, along with DMSO vehicle control rows. The microtiter plates were inoculated with 5×10^5 bacteria and incubated overnight at 35° C. in a humidified atmosphere.

[3] = test system: panel of 125 important Gram positive strains and MDR clinical isolates of MRSA, VRE, and S. epidermidis; assay: MIC versus panel of 125 strains; type: cell-based; conditions: panel of 125 strains incl. strains resistant to vancomycin, penicillin, erythromycin and ciprofloxacin
Procedure: Using a broth microdilution assay according to Clinical Laboratory Standards Institute (CSLI) guidelines, we tested 5-(2,5-bis(4-chloro-2-isopropylphenyl)thiophen-3-yl)-1H-tetrazole (“Test Article” in below table) to establish MICs against a broad range of MDR bacteria and noted substantive activity versus methicillin-resistant Staphylococcus aureus (MRSA), vancomycin-resistant Enterococcus (VRE) and Streptococcus spp. Antimicrobial susceptibility testing was performed by a microdilution broth assay according to CLSI guidelines. The inoculum was prepared from stationary-phase cultures diluted in water. Microtiter plate wells received aliquots of 100 μL of the compound diluted in Mueller-Hinton II cation adjusted media. The final concentration of compound typically ranged from 250 to 0.125 μg/ml in serial two-fold dilutions. In addition to the test compound, growth and sterility controls were included, along with DMSO vehicle control rows. The microtiter plates were inoculated with 5×10^5 bacteria and incubated overnight at 35° C. in a humidified atmosphere. […]

[4] = test system: S. epidermidis NRS7 vancomycin intermediate; assay: broth microdilution MIC (CLSI); type: cell-based; conditions: Staphylococcus epidermidis, read-out: Antibacterial activity (MIC)
Procedure: as §1

[5] = test system: S. aureus MRSA clinical isolate multi resistant; assay: broth microdilution MIC (CLSI); type: cell-based; conditions: Staphylococcus aureus; S. aureus MRSA clinical isolate multi resistant; read-out: Antibacterial activity (MIC)
Procedure: as §1

[6] = test system: S. aureus MRSA MISA MU3 NRS2; assay: broth microdilution MIC (CLSI); type: cell-based; conditions: Staphylococcus aureus; S. aureus MRSA MISA MU3 NRS2; read-out: Antibacterial activity (MIC)
Procedure: as §1

[7] = test system: S. aureus MRSA MISA MU50 NRS1; assay: broth microdilution MIC (CLSI); type: cell-based; conditions: Staphylococcus aureus; S. aureus MRSA MISA MU50 NRS1; read-out: Antibacterial activity (MIC)
Procedure: as §1

[8] = test system: S. aureus MRSA clinical isolate penicillin and erythromycin resistant; assay: broth microdilution MIC (CLSI); type: cell-based; conditions: Staphylococcus aureus; S. aureus MRSA clinical isolate penicillin and erythromycin resistant; read-out: Antibacterial activity (MIC)
Procedure: as §1

[9] = test system: S. aureus MRSA clinical isolate from Manchester; assay: broth microdilution MIC (CLSI); type: cell-based; conditions: Staphylococcus aureus; S. aureus MRSA clinical isolate from Manchester; read-out: Antibacterial activity (MIC)
Procedure: as §1

[10] = test system: S. aureus MRSA USA100 epidemic strain; assay: broth microdilution MIC (CLSI); type: cell-based; conditions: Staphylococcus aureus; S. aureus MRSA USA100 epidemic strain; read-out: Antibacterial activity (MIC)
Procedure: as §1

[11] = test system: S. aureus MRSA clinical isolate ciprofloxacin resistant; assay: broth microdilution MIC (CLSI); type: cell-based; conditions: Staphylococcus aureus; S. aureus MRSA clinical isolate ciprofloxacin resistant; read-out: Antibacterial activity (MIC)
Procedure: as §1

S. aureus MRSA ATCC43300 = assay: broth microdilution MIC (CLSI); type: cell-based; conditions: Staphylococcus aureus; S. aureus MRSA ATCC43300; read-out: Antibacterial activity (MIC)
Procedure: as §1

[12] = test system: E. faecium ATCC51299 vancomycin resistant; assay: broth microdilution MIC (CLSI); type: cell-based; conditions: Enterococcus faecium, read-out: Antibacterial activity (MIC)
Procedure: as §1

[13] = test system: S. aureus MRSA USA200 epidemic strain; assay: broth microdilution MIC (CLSI); type: cell-based; conditions: Staphylococcus aureus; S. aureus MRSA USA200 epidemic strain; read-out: Antibacterial activity (MIC)
Procedure: as §1

[14] = test system: S. aureus MRSA USA300 epidemic strain; assay: broth microdilution MIC (CLSI); type: cell-based; conditions: Staphylococcus aureus; S. aureus MRSA USA300 epidemic strain; read-out: Antibacterial activity (MIC)
Procedure: as §1

[15] = test system: E. faecalis ATCC51599 vancomycin resistant; assay: broth microdilution MIC (CLSI); type: cell-based; conditions: Enterococcus faecalis, read-out: Antibacterial activity (MIC)
Procedure: as §1

MRSA = assay: cellulitis model, intra-dermal MRSA; type: in vivo, SKH1 mice; conditions: topical formulation for 7 days
Procedure: SKH1 mice were injected intra-dermally with MRSA (N=15). 5 mice received neutral control topical formulation for 7 days. 5 mice received a topical formulation containing mupirocin for 7 days. 5 mice received a topical formulation containing 5-(2,5-bis(4-chloro-2-isopropylphenyl)thiophen-3-yl)-1H-tetrazole for 7 days. Lesion area was measured each day. After 7 days, terminal colony forming units (CFUs) were measured to determine microbiological efficacy.

LpxA = LpxA (Escherichia coli, UniProt P0A722); assay: in vitro enzyme assay, selectivity; type: biochemical; conditions: ACP utilizing bacterial enzyme
Sequence of LpxA (P0A722 whole entry): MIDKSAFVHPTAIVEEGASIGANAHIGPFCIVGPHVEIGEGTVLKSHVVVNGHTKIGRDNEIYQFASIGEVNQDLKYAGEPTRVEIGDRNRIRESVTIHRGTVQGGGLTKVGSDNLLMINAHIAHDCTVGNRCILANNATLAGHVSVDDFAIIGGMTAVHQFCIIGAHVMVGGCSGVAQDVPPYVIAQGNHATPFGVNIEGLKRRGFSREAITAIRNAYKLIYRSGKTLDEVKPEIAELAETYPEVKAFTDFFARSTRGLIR

[16] = test system: mupirocin resistant strains of E. faecalis VRE; assay: activity against mupirocin resistant strains; type: cell-based
S. aureus AcpS = assay: MIC shift upon AcpS over-expression in E. coli strain D22; type: cell-based; conditions: E. coli D22 over-expressing S. aureus AcpS, IPTG inducible
From the text: (§2) To determine if AcpS inhibition is the main in vivo target that results in bacterial killing by 5-(2,5-bis(4-chloro-2-isopropylphenyl)thiophen-3-yl)-1H-tetrazole, we over-expressed AcpS in bacteria. An E. coli strain genetically engineered to have a porous outer membrane (strain D22) was transformed with a plasmid expressing either E. coli or S. aureus AcpS under control of an IPTG inducible promoter.

E. coli AcpS = biological target: T1, E. coli AcpS (Escherichia coli, UniProt P24224); assay: as above; type: cell-based; conditions: E. coli D22 over-expressing E. coli AcpS, IPTG inducible
T1 construct: expressed in transfected cells; host or cells: E. coli strain D22 (porous outer membrane)
T1 sequence (P24224 whole entry): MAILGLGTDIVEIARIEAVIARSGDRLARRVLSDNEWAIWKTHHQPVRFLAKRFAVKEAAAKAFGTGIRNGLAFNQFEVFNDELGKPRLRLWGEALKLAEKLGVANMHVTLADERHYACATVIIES
From the text: as §2

## CC(C)c1cc(Cl)ccc1-c1cc(-c2nnn[nH]2)c(-c2ccc(Cl)cc2C(C)C)s1 [Test Article, 5-(2,5-bis(4-chloro-2-isopropylphenyl)thiophen-3-yl)-1H-tetrazole]
[1]
  activity: retained activity
[2]
  MIC: 2 µg/mL (≈ 4.37 µM)
[3]
  MIC: 0.5 to 1 µg/mL (≈ 1.09 to 2.19 µM)
[4]
  MIC: 1 µg/mL (≈ 2.19 µM)
[5]
  MIC: 0.5 µg/mL (≈ 1.09 µM)
[6]
  MIC: 1 µg/mL (≈ 2.19 µM)
[7]
  MIC: 0.5 µg/mL (≈ 1.09 µM)
[8]
  MIC: 0.5 µg/mL (≈ 1.09 µM)
[9]
  MIC: 0.5 µg/mL (≈ 1.09 µM)
[10]
  MIC: 1 µg/mL (≈ 2.19 µM)
[11]
  MIC: 1 µg/mL (≈ 2.19 µM)
S. aureus MRSA ATCC43300
  MIC: 0.5 µg/mL (≈ 1.09 µM)
[12]
  MIC: 1 µg/mL (≈ 2.19 µM)
[13]
  MIC: 0.5 µg/mL (≈ 1.09 µM)
[14]
  MIC: 0.5 µg/mL (≈ 1.09 µM)
[15]
  MIC: 0.5 µg/mL (≈ 1.09 µM)
MRSA; FIG. 2A
  terminal CFU count: significantly reduce
MRSA; FIG. 2B
  lesion area: significantly reduce
LpxA
  inhibition of LpxA: did not inhibit
[16]
  activity: retained activity
S. aureus AcpS
  shift of MIC to higher concentration upon increased AcpS expression: 16 fold
E. coli AcpS
  shift of MIC to higher concentration upon increased AcpS expression: 32 fold
